In experiment [1] the target is c-Src (Homo sapiens (Human), UniProt P12931). Nature of the experiment: c-Src enzyme inhibition (FRET, Z-LYTE). Type of experiment: biochemical. On the procedure:
(§1) The enzyme inhibitory activities of compounds disclosed herein are determined by FRET using synthetic peptides labelled with both donor and acceptor fluorophores (Z-LYTE, Invitrogen Ltd., Paisley, UK).
(§2) The relevant enzyme (3000 ng/mL or 2000 ng/mL respectively, 2.5 μL) is incubated with the test compound (either 1 μg/mL, 0.1 μg/mL, 0.01 μg/mL, or 0.001 μg/mL, 2.5 μL each) for 2 hr at RT. The FRET peptides (8 μM, 2.5 μL), and appropriate ATP solutions (2.5 μL, 800 μM for c-Src, and 60 μM ATP for Syk) are then added to the enzymes/compound mixtures and the mixture incubated for 1 hr. Development reagent (protease, 5 μL) is added for 1 hr prior to detection in a fluorescence microplate reader (Varioskan® Flash, ThermoFisher Scientific).
(§3) In all cases, the site-specific protease cleaves non-phosphorylated peptide only and eliminates the FRET signal. Phosphorylation levels of each reaction are calculated using the ratio of coumarin emission (donor) over fluorescein emission (acceptor), for which high ratios indicate high phosphorylation and low ratios indicate low phosphorylation levels.

Experiment [2] concerns the target GSK 3α (Homo sapiens (Human), UniProt P49840). Briefly: GSK 3α enzyme inhibition (FRET, Z-LYTE; Method 2). Type of experiment: biochemical. Conditions: read-out: IC50 Values for Enzyme Inhibition GSK3α. The method, boiled down:
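Z-LYTE FRET assay: GSK3-α (500 ng/mL stock) preincubated 105 min at RT with compound at 10, 1, 0.1 or 0.01 μg/mL stock. FRET peptide (8 μM stock) and ATP (40 μM stock) were then added for 1 h, followed by protease development for 1 h. Phosphorylation was read as coumarin/fluorescein emission ratio.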

In experiment [3] the target is p38 MAPKα (MAPK14) (Homo sapiens (Human), UniProt Q16539). Nature of the experiment: p38 MAPKα enzyme inhibition (FRET, Z-LYTE; Method 2). Format: biochemical. Here is the method: as §1
The inhibitory activities of test compounds against the p38 MAPKα isoform (MAPK14: Invitrogen) are evaluated indirectly by determining the level of activation\phosphorylation of the down-stream molecule, MAPKAP-K2. The p38 MAPKα protein (80 ng/mL, 2.5 μL) is mixed with the test compound (2.5 μL of either 4 μg/mL, 0.4 μg/mL, 0.04 μg/mL or 0.004 μg/mL) for 2 hr at RT. […] The mixture is incubated for 1 hr at RT. Development reagent (protease, 5 μL) is added for 1 hr prior to detection in a fluorescence microplate reader (Vanoskan® Flash, ThermoFisher Scientific).
as §3

The target in experiment [4] is Syk (Homo sapiens (Human), UniProt P43405). Briefly: Syk enzyme inhibition (FRET, Z-LYTE). Type of experiment: biochemical. Here is the method:
as §1, §2, §3

In experiment [5] the test system is β-catenin in d-U937 cells. Nature of the experiment: Accumulation of β catenin in d-U937 cells (assay m). Type of experiment: cell-based, human. Here is the method: U937 cells, a human monocytic cell line, are differentiated into macrophage-type cells by incubation with PMA (100 ng/mL) for between 48 to 72 hr. The cells are then incubated with either final concentrations of test compound or vehicle for 18 hr. The induction of β-catenin by the test compounds is stopped by replacing the media with 4% formaldehyde solution. Endogenous […] is neutralised by incubating with quenching buffer (100 μL, 0.1% sodium azide, 1% H2O2 in PBS with 0.05% Tween-20) for 20 min. The cells are washed with washing buffer (200 μL; PBS containing 0.05% Tween-20) and incubated with blocking solution (200 μL; 5% milk in PBS) for 1 hr, re-washed with washing buffer (200 μL) and then incubated overnight with anti-β-catenin antibody solution (50 μL) in 1% BSA/PBS (BD, Oxford, UK).
After washing with washing buffer (3×200 μL; PBS containing 0.05% Tween-20), cells are incubated with a HRP-conjugated secondary antibody solution (100 μL) in 1% BSA/PBS (Dako, Cambridge, UK) and the resultant signal is determined colourimetrically (OD: 450 nm with a reference wavelength of 655 nm) using TMB substrate (50 μL; R&D Systems, Abingdon, UK). This reaction is stopped by addition of 1N H2SO4 solution (50 μL). Cells are then washed with washing buffer and 2% crystal violet solution (50 μL) is applied for 30 min. After washing with washing buffer (3×200 μL), 1% SDS (100 μL) is added to each well and the plates are shaken lightly for 1 hr prior to measuring the absorbance at 595 nm (Varioskan® Flash, Thermo-Fisher Scientific).
The measured OD450-655 readings are corrected for cell number by dividing the OD450-655 by the OD595 readings.

c-Src, sequence (P12931 whole entry, looked up): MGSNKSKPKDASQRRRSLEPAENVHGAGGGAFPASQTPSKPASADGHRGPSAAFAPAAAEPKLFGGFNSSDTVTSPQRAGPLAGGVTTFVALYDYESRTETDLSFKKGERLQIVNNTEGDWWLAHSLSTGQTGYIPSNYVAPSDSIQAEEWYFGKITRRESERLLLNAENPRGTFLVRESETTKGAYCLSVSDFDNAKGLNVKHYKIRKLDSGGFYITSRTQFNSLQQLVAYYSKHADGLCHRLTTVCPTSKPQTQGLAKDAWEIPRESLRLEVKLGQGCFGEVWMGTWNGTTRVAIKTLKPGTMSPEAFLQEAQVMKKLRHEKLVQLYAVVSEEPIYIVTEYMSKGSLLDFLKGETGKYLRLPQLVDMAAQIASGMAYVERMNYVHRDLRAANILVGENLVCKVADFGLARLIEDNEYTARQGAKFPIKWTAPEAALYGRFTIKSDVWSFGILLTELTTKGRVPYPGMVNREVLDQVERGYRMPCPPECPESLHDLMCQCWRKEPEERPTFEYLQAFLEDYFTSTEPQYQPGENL
GSK 3α, sequence (P49840 whole entry): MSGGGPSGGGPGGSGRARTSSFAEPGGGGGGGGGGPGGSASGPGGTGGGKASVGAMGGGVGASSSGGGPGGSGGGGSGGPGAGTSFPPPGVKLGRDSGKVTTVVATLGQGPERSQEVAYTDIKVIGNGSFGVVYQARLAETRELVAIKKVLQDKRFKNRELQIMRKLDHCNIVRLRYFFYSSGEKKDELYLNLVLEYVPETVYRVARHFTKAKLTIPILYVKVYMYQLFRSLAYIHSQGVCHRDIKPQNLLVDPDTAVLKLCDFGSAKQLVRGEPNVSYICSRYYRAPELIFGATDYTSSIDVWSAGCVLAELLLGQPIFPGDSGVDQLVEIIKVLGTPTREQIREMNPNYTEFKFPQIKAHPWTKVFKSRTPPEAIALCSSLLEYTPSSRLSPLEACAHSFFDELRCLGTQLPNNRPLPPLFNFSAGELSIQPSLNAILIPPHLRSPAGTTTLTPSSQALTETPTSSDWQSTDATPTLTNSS
p38 MAPKα (MAPK14), sequence (Q16539 whole entry, canonical isoform): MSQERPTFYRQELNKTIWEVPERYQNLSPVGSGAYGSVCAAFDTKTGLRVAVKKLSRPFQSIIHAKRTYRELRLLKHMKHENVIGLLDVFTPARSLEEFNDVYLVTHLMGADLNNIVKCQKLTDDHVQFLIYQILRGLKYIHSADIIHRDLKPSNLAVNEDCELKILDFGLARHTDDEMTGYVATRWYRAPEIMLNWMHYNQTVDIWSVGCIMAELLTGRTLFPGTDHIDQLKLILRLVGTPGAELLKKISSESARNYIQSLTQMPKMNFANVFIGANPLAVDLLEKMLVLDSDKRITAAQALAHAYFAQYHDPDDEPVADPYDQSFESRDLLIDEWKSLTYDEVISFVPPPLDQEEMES

On to `COCCOCCOCCOc1cc(Nc2nccc(Oc3ccc(NC(=O)Nc4cc(C(C)(C)C)cc(NS(C)(=O)=O)c4-c4ccccc4)c4ccccc34)n2)cc(OC)c1` [83(a), N-(4-(tert-butyl)-6-(3-(4-((2-((3-methoxy-5-(2-(2-(2-methoxyethoxy)ethoxy)ethoxy)phenyl)-amino)pyrimidin-4-yl)oxy)naphthalen-1-yl)ureido)-[1,1′-biphenyl]-2-yl)methane-sulfonamide], for which the concentration for half-maximal inhibition (IC50) (usually the concentration needed to halve the response being measured) in experiment [1] came out at 22 nM; in experiment [2], 8330 nM; in experiment [3], 142 nM; in experiment [4], 1160 nM.

Consider `COc1c(NC(=O)Nc2ccc(Oc3ccnc(Nc4ccccc4)c3)c3ccccc23)cc(C(C)(C)C)cc1C(=O)NC1CCOCC1` [84(a), 3-[[4-[(2-Anilino-4-pyridyl)oxy]-1-naphthyl]carbamoylamino]-5-tert-butyl-2-methoxy-N-tetrahydropyran-4-yl-benzamide], for which the IC50 in experiment [2] was found to be 12600 nM; in experiment [3], 275 nM.

On to `C#Cc1cc(Nc2nccc(Oc3ccc(NC(=O)Nc4cc(F)cc(N5CCOCC5)c4)c4ccccc34)n2)cc(C(=O)NCCN2CCOCC2)c1` [Example 2, 3-Ethynv-5-((4-((4-(3-(3-fluoro-5-morpholinophenyl)ureido)naphthalen-1-yl)oxy)-pyrimidin-2-yl)amino)-N-(2-morpholinoethyl)benzamide], for which the half-maximal inhibitory concentration (IC50) stood at 45 nM in experiment [1], 12700 nM in experiment [2] and 37 nM in experiment [3]. Also, the “% β-catenin induction” value in experiment [5] (test compound 1 μg/mL) was −6%; in experiment [5] (test compound 5 μg/mL), −4%.

`C#Cc1cc(Nc2nccc(Oc3ccc(NC(=O)Nc4cc(C(C)(C)C)cc(C(=O)NC)c4OC)c4ccccc34)n2)cc(C(=O)NCCN2CCOCC2)c1` [Example 9]: the concentration for half-maximal inhibition (IC50) in experiment [1] worked out at 8 nM; in experiment [2] it was 1630 nM; in experiment [4] it was 27 nM. The “% β-catenin induction” value in experiment [5] (test compound 1 μg/mL) amounted to 32%; in experiment [5] (test compound 5 μg/mL), 48%; in experiment [5] (test compound 10 μg/mL), 67%.

As to `CNC(=O)c1cc(NC(=O)Nc2ccc(Oc3ccnc(Nc4cc(OC)cc(OCCOCCOCCOC)c4)n3)c3ccccc23)cc(C(C)(C)C)c1` [Example 23, 3-(tert-Butyl)-5-(3-(4-((2-((3-methoxy-5-(2-(2-(2-methoxyethoxy)ethoxy)ethoxy)phenyl)-amino)pyrimidin-4-yl)oxy)naphthalen-1-yl)ureido)-N-methylbenzamide], the “% β-catenin induction” value in experiment [5] (test compound 1 μg/mL) is −4%; in experiment [5] (test compound 5 μg/mL), 10%; in experiment [5] (test compound 10 μg/mL) it was 9%. Besides, the figures for the IC50 in experiment [2] and in experiment [4] were 733 nM and 147 nM, respectively.

Regarding `COCCOCCOCCOc1cc(Nc2nccc(Oc3ccc(NC(=O)Nc4cc(C(C)(C)C)cc(C(=O)NC5CC5)c4OC)c4ccccc34)n2)cc(OC)c1` [Example 33, 5-(tert-Butyl)-N-cyclopropyl-2-methoxy-3-(3-(4-((2-((3-methoxy-5-(2-(2-(2-methoxy-ethoxy)ethoxy)ethoxy)phenyl)amino)pyrimidin-4-yl)oxy)naphthalen-1-yl)ureido)-benzamide], the results for the IC50 in experiment [1], in experiment [2] and in experiment [4] were 11 nM, 828 nM and 28 nM, respectively.

On to `COCCOCCOCCOc1cc(Nc2nccc(Oc3ccc(NC(=O)Nc4cc(C(C)(C)C)cc(C(=O)NCCO)c4OC)c4ccccc34)n2)cc(OC)c1` [Example 35, 5-(tert-Butyl)-N-(2-hydroxyethyl)-2-methoxy-3-(3-(4-((2-((3-methoxy-5-(2-(2-(2-methoxy-ethoxy)ethoxy)ethoxy)phenyl)amino)pyrimidin-4-yl)oxy)naphthalen-1-yl)ureido)-benzamide], for which the IC50 was found to be 13 nM in experiment [1], 597 nM in experiment [2], 120 nM in experiment [3] and 48 nM in experiment [4].

With `COCCOCCOCCOc1cc(Nc2nccc(Oc3ccc(NC(=O)Nc4cc(C(C)(C)C)cc(C(=O)NCC(=O)OC)c4OC)c4ccccc34)n2)cc(OC)c1` [Example 37, Methyl 2-(5-(tert-butyl)-2-methoxy-3-(3-(4-((2-((3-methoxy-5-(2-(2-(2-methoxyethoxy)-ethoxy)ethoxy)phenyl)amino)pyrimidin-4-yl)oxy)naphthalen-1-yl)ureido)benzamido)-acetate], the IC50 worked out at 12 nM in experiment [1], 1520 nM in experiment [2] and 43 nM in experiment [4]. The entries for the “% β-catenin induction” value in experiment [5] (test compound 1 μg/mL), in experiment [5] (test compound 5 μg/mL) and in experiment [5] (test compound 10 μg/mL) were 4%, 38% and 46%, respectively.

Take `C#Cc1cc(Nc2cc(Oc3ccc(NC(=O)Nc4cc(C(N)=O)cc(C(C)(C)C)c4)c4ccccc34)ccn2)cc(C(=O)NCCOCCOCCOC)c1` [Example 62, 3-((4-((4-(3-(3-(tert-Butyl)-5-carbamoylphenyl)ureido)naphthalen-1-yl)oxy)vridin-2-yl)amino)-5-ethynyl-N-(2-(2-(2-methoxyethoxy)ethoxy)ethyl)benzamide]: the concentration for half-maximal inhibition (IC50) is 44 nM in experiment [1], 10600 nM in experiment [2], 32 nM in experiment [3] and 1320 nM in experiment [4].

Take `COCCOCCOCCOc1cc(Nc2nccc(Oc3ccc(NC(=O)Nc4cc(C(C)(C)C)cc(-c5cnn[nH]5)c4OC)c4ccccc34)n2)cc(OC)c1` [Example 70, 1-(5-(tert-Butyl)-2-methoxy-3-(1H-1,2,3-triazol-5-yl)phenyl)-3-(4-((2-((3-methoxy-5-(2-(2-(2-methoxyethoxy)ethoxy)ethoxy)phenyl)amino)pyrimidin-4-yl)oxy)naphthalen-1-yl)urea]: the concentration for half-maximal inhibition (IC50) came to 67 nM in experiment [1], 3970 nM in experiment [2], 332 nM in experiment [3] and 86 nM in experiment [4].

With `COc1c(NC(=O)Nc2ccc(Oc3ccnc(NCc4ccccn4)c3)c3ccccc23)cc(C(C)(C)C)cc1C(=O)NC1COC1` [Example 80, 5-(tert-Butyl)-2-methoxy-N-(oxetan-3-yl)-3-(3-(4-((2-((pyridin-2-ylmethyl)amino)pyridin-4-yl)oxy)naphthalen-1-yl)ureido)benzamide], the figures for the IC50 in experiment [1], in experiment [2] and in experiment [3] were 968 nM, 1250 nM and 18 nM, respectively. The “% β-catenin induction” value was 5% in experiment [5] (test compound 1 μg/mL), 38% in experiment [5] (test compound 5 μg/mL) and 47% in experiment [5] (test compound 10 μg/mL).

Turning to `COc1cc(Nc2cc(Oc3ccc(NC(=O)Nc4cc(C(C)(C)C)cc(NS(C)(=O)=O)c4OC)c4ccccc34)ccn2)cc(C(=O)NCC(=O)N2CCOCC2)c1` [Example 85(a), 3-[[4-[[4-[[5-tert-Butyl-3-(methanesulfonamido)-2-methoxyphenyl]-carbamoylamino]-1-naphthyl]oxy]-2-pyridyl]amino]-5-methoxy-N-(2-morvholino-2-oxo-ethyl)benzamide], the concentration for half-maximal inhibition (IC50) in experiment [1] is 29 nM; in experiment [2], 6740 nM; in experiment [3], 38 nM; in experiment [4] it was 656 nM.

Take `COCCOCCOCCS(=O)(=O)c1cc(Nc2cc(Oc3ccc(NC(=O)Nc4cc(C(C)(C)C)cc(NS(C)(=O)=O)c4OC)c4ccccc34)ccn2)cc(OC)c1` [Example 85(y), 1-[5-tert-Butyl-3-(methanesulfonamido)-2-methoxyphenyl]-3-[4-[2-[3-methoxy-5-[2-[2-(2-methoxyethoxy)ethoxy]ethylsulfonyl]anilino]pyridin-4-yl]oxy-1-naphthyl]urea]: the IC50 in experiment [1] amounted to 206 nM; in experiment [2], 2630 nM; in experiment [4], 1160 nM.

These data come from patent US9481648B2, “Kinase inhibitors” (Respivert Limited, priority 2013, dated 2016).
